# Values quoted from earlier work as cited in patent US10188628B1, “Release composition for derivatives of Cannabaceae” (priority 2016, dated 2019).
# Assays:
# [1] = after oral administration
# [2] = not given; remark: listed apart in the source
smiles,measurement,setting,value
"CCCCCc1cc(O)c2c(c1)OC(C)(C)[C@@H]1CCC(C)=C[C@@H]21 [Dronabinol, Δ^9-tetrahydrocannabinol]",appetite stimulant effect may continue,[1],≥ 24 h
same,duration of action for psychoactive effects,[1],4 to 6 h
same,onset of action,[1],0.5 to 1 h
same,peak effect,[1],2 to 4 h
same,absorbed,after a single oral dose,90-95%
same,maximal plasma levels,oral dosing of 20 mg in a sesame oil formulation,around 10 ng/ml
same,administered dose reaching systemic circulation,"oral, first pass hepatic metabolism and high lipid solubility",10-20%
same,stability to storage and stress conditions,"[2]; heat, light",thermolabile and photolabile
same,biopharmaceutical classification system (BCS) class,[2]; low aqueous solubility and high permeability,Class II
